We go through nine compounds from patent US9499550B2 (BRISTOL-MYERS SQUIBB COMPANY, priority 2012, dated 2016).

The EC50 is the midpoint of the concentration-response curve.

The subject of assay [1] is HCV genotype 1b (Con1) replicon in HUH-7 cells. Briefly: HCV replicon luciferase reporter assay, genotype 1b. It is filed as cell-based. Conditions: Hepatitis C virus, Huh-7, 72 h, HCV genotype 1b replicon luciferase, 3 days incubation. In outline: (§1)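 Replicon inhibition for both genotypes was measured as Renilla luciferase signal (EnduRen, 7.5 μM final, 2 h) after 3-day, 37° C exposure of replicon-bearing HUH-7 cells in 4% FCS DMEM, 0.5% DMSO. The 1b construct carries S1179I; the 1a H77 construct carries P1496L and S2204I. Twenty-point, 3-fold dilutions were fitted four-parametrically for EC50, and CC50 was taken from multiplexed Cell Titer-Blue.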
For orientation: A replicon is a self-replicating genome or part of one, used to study replication in cells.

Assay [2] deals with HCV genotype 1a (H77 strain) replicon in HUH-7 cells. In words: HCV replicon luciferase reporter assay, genotype 1a. Conditions: Hepatitis C virus, Huh-7, 72 h, HCV genotype 1a replicon luciferase, 3 days incubation. The assay is classed as cell-based. In outline:
as §1

Where two headings read alike, the source gives them in different places. Where only a bound is given, the exact number is not on record here.

On to `C[C@@H]1CC/C=C\[C@@H]2C[C@@]2(C(=O)NS(=O)(=O)C2(C)CC2)NC(=O)[C@@H]2C[C@@H](Oc3nccc4c5c(ccc34)N(C)CCO5)CN2C(=O)[C@@H](NC(=O)O[C@@H]2C[C@@H]3C[C@@H]3C2)[C@H](C)C1` [Compound 5300, (1R,3r,5S)-bicyclo[3.1.0]hexan-3-yl((2R,6S,7R,9R,13aS,14aR,16aS,Z)-7,9-dimethyl-2-((4-methyl-3,4-dihydro-2H-[1,4]oxazino[2,3-f]isoquinolin-7-yl)oxy)-14a-(((1-methylcyclopropyl)sulfonyl)carbamoyl)-5,16-dioxo-1,2,3,5,6,7,8,9,10,11,13a,14,14a,15,16,16a-hexadecahydrocyclopropa[e]pyrrolo[1,2-a][1,4]diazacyclopentadecin-6-yl)carbamate], for which the 50% effective concentration (EC50) in assay [1] (read-out: LE_1b (EC50, range)) is < 5.46 nM; in assay [2] (read-out: LE_1a (EC50, range)), < 5.46 nM.

For the compound `C[C@H]1CC/C=C\[C@@H]2C[C@@]2(C(=O)NS(=O)(=O)C2(C)CC2)NC(=O)[C@@H]2C[C@@H](Oc3nccc4c5c(ccc34)N(C)CCO5)CN2C(=O)[C@@H](NC(=O)NC(C)(C)C)[C@H](C)C1` [Compound 5301, (2R,6S,7R,9S,13aS,14aR,16aS,Z)-6-(3-(tert-butyl)ureido)-7,9-dimethyl-2-((4-methyl-3,4-dihydro-2H-[1,4]oxazino[2,3-f]isoquinolin-7-yl)oxy)-N-((1-methylcyclopropyl)sulfonyl)-5,16-dioxo-1,2,3,5,6,7,8,9,10,11,13a,14,14a,15,16,16a-hexadecahydrocyclopropa[e]pyrrolo[1,2-a][1,4]diazacyclopentadecine-14a-carboxamide], the concentration for a half-maximal effect (EC50) is < 5.46 nM in assay [1] (read-out: LE_1b (EC50, range)) and 4.82 to 103 nM in assay [2] (read-out: LE_1a (EC50, range)).

With `C[C@@H]1CC/C=C\[C@@H]2C[C@@]2(C(=O)NS(=O)(=O)C2(C)CC2)NC(=O)[C@@H]2C[C@@H](Oc3nccc4c5c(ccc34)N(C)CCO5)CN2C(=O)[C@@H](NC(=O)NC(C)(C)C)[C@H](C)C1` [Compound 5302, (2R,6S,7R,9R,13aS,14aR,16aS,Z)-6-(3-(tert-butyl)ureido)-7,9-dimethyl-2-((4-methyl-3,4-dihydro-2H-[1,4]oxazino[2,3-f]isoquinolin-7-yl)oxy)-N-((1-methylcyclopropyl)sulfonyl)-5,16-dioxo-1,2,3,5,6,7,8,9,10,11,13a,14,14a,15,16,16a-hexadecahydrocyclopropa[e]pyrrolo[1,2-a][1,4]diazacyclopentadecine-14a-carboxamide], the concentration giving a half-maximal response (EC50) in assay [1] (read-out: LE_1b (EC50, range)) is < 5.46 nM; in assay [2] (read-out: LE_1a (EC50, range)), < 5.46 nM.

As for `C[C@H]1CC/C=C\[C@@H]2C[C@@]2(C(=O)NS(=O)(=O)C2(C)CC2)NC(=O)[C@@H]2C[C@@H](Oc3nccc4c5c(ccc34)N(C)CCO5)CN2C(=O)[C@@H](NC(=O)c2ccc(N(C)C)cc2)[C@H](C)C1` [Compound 5303, (2R,6S,7R,9S,13aS,14aR,16aS,Z)-6-(4-(dimethylamino)benzamido)-7,9-dimethyl-2-((4-methyl-3,4-dihydro-2H-[1,4]oxazino[2,3-f]isoquinolin-7-yl)oxy)-N-((1-methylcyclopropyl)sulfonyl)-5,16-dioxo-1,2,3,5,6,7,8,9,10,11,13a,14,14a,15,16,16a-hexadecahydrocyclopropa[e]pyrrolo[1,2-a][1,4]diazacyclopentadecine-14a-carboxamide], the EC50 in assay [1] (read-out: LE_1b (EC50, range)) was < 5.46 nM; in assay [2] (read-out: LE_1a (EC50, range)) it was 4.82 to 103 nM.

With `C[C@@H]1CC/C=C\[C@@H]2C[C@@]2(C(=O)NS(=O)(=O)C2(C)CC2)NC(=O)[C@@H]2C[C@@H](Oc3nccc4c5c(ccc34)N(C)CCO5)CN2C(=O)[C@@H](NC(=O)c2ccc(N(C)C)cc2)[C@H](C)C1` [Compound 5304, (2R,6S,7R,9R,13aS,14aR,16aS,Z)-6-(4-(dimethylamino)benzamido)-7,9-dimethyl-2-((4-methyl-3,4-dihydro-2H-[1,4]oxazino[2,3-f]isoquinolin-7-yl)oxy)-N-((1-methylcyclopropyl)sulfonyl)-5,16-dioxo-1,2,3,5,6,7,8,9,10,11,13a,14,14a,15,16,16a-hexadecahydrocyclopropa[e]pyrrolo[1,2-a][1,4]diazacyclopentadecine-14a-carboxamide], the EC50 in assay [1] (read-out: LE_1b (EC50, range)) was < 5.46 nM; in assay [2] (read-out: LE_1a (EC50, range)), < 5.46 nM.

Consider `C[C@H]1CC/C=C\[C@@H]2C[C@@]2(C(=O)NS(=O)(=O)C2(C)CC2)NC(=O)[C@@H]2C[C@@H](Oc3nccc4c5c(ccc34)N(C)CCO5)CN2C(=O)[C@@H](NC(=O)C(=O)N(C)C)[C@H](C)C1` [Compound 5305, N1-((2R,6S,7R,9S,13aS,14aR,16aS,Z)-7,9-dimethyl-2-((4-methyl-3,4-dihydro-2H-[1,4]oxazino[2,3-f]isoquinolin-7-yl)oxy)-14a-(((1-methylcyclopropyl)sulfonyl)carbamoyl)-5,16-dioxo-1,2,3,5,6,7,8,9,10,11,13a,14,14a,15,16,16a-hexadecahydrocyclopropa[e]pyrrolo[1,2-a][1,4]diazacyclopentadecin-6-yl)-N2,N2-dimethyloxalamide], for which the EC50 in assay [1] (read-out: LE_1b (EC50, range)) was 4.82 to 103 nM; in assay [2] (read-out: LE_1a (EC50, range)), 4.82 to 103 nM.

With `C[C@@H]1CC/C=C\[C@@H]2C[C@@]2(C(=O)NS(=O)(=O)C2(C)CC2)NC(=O)[C@@H]2C[C@@H](Oc3nccc4c5c(ccc34)N(C)CCO5)CN2C(=O)[C@@H](NC(=O)C(=O)N(C)C)[C@H](C)C1` [Compound 5306, N1-((2R,6S,7R,9R,13aS,14aR,16aS,Z)-7,9-dimethyl-2-((4-methyl-3,4-dihydro-2H-[1,4]oxazino[2,3-f]isoquinolin-7-yl)oxy)-14a-(((1-methylcyclopropyl)sulfonyl)carbamoyl)-5,16-dioxo-1,2,3,5,6,7,8,9,10,11,13a,14,14a,15,16,16a-hexadecahydrocyclopropa[e]pyrrolo[1,2-a][1,4]diazacyclopentadecin-6-yl)-N2,N2-dimethyloxalamide], the concentration giving a half-maximal response (EC50) is 2.45 nM in assay [1] (read-out: LE_1b (EC50)); < 5.46 nM in assay [1] (read-out: LE_1b (EC50, range)); 2.97 nM in assay [2] (read-out: LE_1a (EC50)); < 5.46 nM in assay [2] (read-out: LE_1a (EC50, range)).

With `CC[C@@H]1C[C@@H](C)CC/C=C\[C@@H]2C[C@@]2(C(=O)NS(=O)(=O)C2CC2)NC(=O)[C@@H]2C[C@@H](Oc3nccc4c5c(ccc34)N(C)CCO5)CN2C(=O)[C@H]1NC(=O)OC(C)(C)C` [Compound 5307, tert-butyl ((2R,6S,7R,9S,13aS,14aR,16aS,Z)-14a-((cyclopropylsulfonyl)carbamoyl)-7-ethyl-9-methyl-2-((4-methyl-3,4-dihydro-2H-[1,4]oxazino[2,3-f]isoquinolin-7-yl)oxy)-5,16-dioxo-1,2,3,5,6,7,8,9,10,11,13a,14,14a,15,16,16a-hexadecahydrocyclopropa[e]pyrrolo[1,2-a][1,4]diazacyclopentadecin-6-yl)carbamate], the half-maximal effective concentration (EC50) in assay [1] (read-out: LE_1b (EC50, range)) is < 5.46 nM; in assay [2] (read-out: LE_1a (EC50, range)), 4.82 to 103 nM.

With `CC[C@@H]1C[C@H](C)CC/C=C\[C@@H]2C[C@@]2(C(=O)NS(=O)(=O)C2CC2)NC(=O)[C@@H]2C[C@@H](Oc3nccc4c5c(ccc34)N(C)CCO5)CN2C(=O)[C@H]1NC(=O)OC(C)(C)C` [Compound 5308, tert-butyl ((2R,6S,7R,9R,13aS,14aR,16aS,Z)-14a-((cyclopropylsulfonyl)carbamoyl)-7-ethyl-9-methyl-2-((4-methyl-3,4-dihydro-2H-[1,4]oxazino[2,3-f]isoquinolin-7-yl)oxy)-5,16-dioxo-1,2,3,5,6,7,8,9,10,11,13a,14,14a,15,16,16a-hexadecahydrocyclopropa[e]pyrrolo[1,2-a][1,4]diazacyclopentadecin-6-yl)carbamate], the concentration giving a half-maximal response (EC50) in assay [1] (read-out: LE_1b (EC50, range)) was < 5.46 nM; in assay [2] (read-out: LE_1a (EC50, range)), < 5.46 nM.
